Results: patent publication US4450269A, “Mono-5-substituted-3-chloro-4H-1,2,6-thiadiazin-4-one antifungal agents” (FMC Corporation, priority 1980, dated 1984)
Where two headings read alike, the source gives them in different places.

Experiments:
Pythium ultimum = experiment: Mycelial growth test; format: cell-based; details: Globisporangium ultimum, 72 h, PU, read-out: Percent Fungus Growth Inhibition
Uromyces phaseoli [1] = experiment: whole plant or invertebrate; details: foliar, read-out: Percent Disease Control, foliar, bean rust
Sclerotinia fructicola = experiment: Mycelial growth test; format: cell-based; details: Sclerotinia, 72 h, SF, read-out: Percent Fungus Growth Inhibition
Description: | SF = Sclerotinia fructicola

Cladosporium cucumerinum [2] = experiment: Spore germination test; format: cell-based; details: CC, 48 hours
Procedure: CC = Cladosporium cucumerinum
(§1) The test chemical was dissolved or suspended in acetone in an amount such that 0.8 ml of the resulting suspension or solution, mixed with 40 ml water agar produced a water agar solution containing 40, 10, 2.5 and 1 ppm of test chemical. The resulting agar solution, at 50° C., was then divided equally between two sterile petri dishes, each having four separated quadrants, and allowed to solidify. […] quadrants of each dish were flooded with 0.1 ml of a spore suspension in sterile water. Spores of two pathogens, Erysiphe polygoni and Uromyes phaseoli, from infected plant leaves, were brushed on the remaining two quadrants. The tests were then incubated 48 hours, at 24° C.
(§2) Readings were then taken and the percentage of germinated spores calculated. From this percentage, a spore germination rating was assigned as follows: […]

Phytophthora infestans [3] = experiment: whole plant or invertebrate; format: in vivo; details: Phytophthora infestans, in Solanum lycopersicum, foliar, read-out: Percent Disease Control, foliar, tomato late blight, 150 ppm, protective
Erysiphe polygoni [4] = experiment: Spore germination test; format: cell-based; details: EP, 48 hours
Procedure: as §1, §2

Botrytis cinerea = experiment: Spore germination test; format: cell-based; details: BC, 48 hours
Procedure: as §1, §2

Alternaria solani [5] = experiment: Spore germination test; format: cell-based; details: AS, 48 hours
Procedure: as §1, §2

Uromyces phaseoli [6] = experiment: Spore germination test; format: cell-based; details: UP, 48 hours
Procedure: as §1, §2

Erysiphe polygoni [7] = experiment: whole plant or invertebrate; details: foliar, 24 h, read-out: Percent Disease Control, curative, bean powdery mildew
Pyricularia oryzae [8] = experiment: microbe, parasite or virus in culture; format: cell-based; details: Pyricularia oryzae, 72 h; for inhibition at 5 ppm: read-out: Percent Fungus Growth Inhibition, PO, 5 ppm, 72 hours; for inhibition at 10 ppm: read-out: Percent Fungus Growth Inhibition, PO, 10 ppm, 72 hours; for inhibition at 20 ppm: read-out: Percent Fungus Growth Inhibition, PO, 20 ppm, 72 hours; for inhibition at 40 ppm: read-out: Percent Fungus Growth Inhibition, PO, 40 ppm, 72 hours
Fusarium solani = experiment: Mycelial growth test; format: cell-based; details: Fusarium solani, 72 h; for inhibition at 5 ppm / inhibition at 10 ppm / inhibition at 20 ppm: PS, 72 hours, read-out: Percent Fungus Growth Inhibition; for inhibition at 40 ppm: read-out: Percent Fungus Growth Inhibition, PS, 40 ppm, 72 hours
Pyricularia oryzae [9] = experiment: whole plant or invertebrate; format: in vivo; details: Pyricularia oryzae, foliar, 24 h, read-out: Percent Disease Control, curative, rice blast, 150 ppm, 24 hours after inoculation
Uromyces phaseoli [10] = experiment: whole plant or invertebrate; details: foliar, 24 h, read-out: Percent Disease Control, curative, bean rust
Alternaria solani [11] = experiment: Mycelial growth test; format: cell-based; details: Alternaria solani, 72 h, AS, read-out: Percent Fungus Growth Inhibition
Pyricularia oryzae [12] = format: cell-based; details: PO, 48 hours
Cladosporium cucumerinum [13] = experiment: Mycelial growth test; format: cell-based; details: Cladosporium cucumerinum, CC, read-out: Percent Fungus Growth Inhibition; for inhibition at 5 ppm / inhibition at 10 ppm / inhibition at 40 ppm: 72 h; for inhibition at 20 ppm: CC20, 72 h
Description: |CC = Cladosporium cucumerinum

Rhizoctonia solani = experiment: Mycelial growth test; format: cell-based; details: Rhizoctonia solani, 72 h, RS, read-out: Percent Fungus Growth Inhibition
Description: | RS = Rhizoctonia solani

Helminthosporium oryzae = experiment: Mycelial growth test; details: Bipolaris oryzae, 72 h; for inhibition at 5 ppm: read-out: Percent Fungus Growth Inhibition, HO, 5 ppm, 72 hours; for inhibition at 10 ppm: read-out: Percent Fungus Growth Inhibition, HO, 10 ppm, 72 hours; for inhibition at 20 ppm: read-out: Percent Fungus Growth Inhibition, HO, 20 ppm, 72 hours; for inhibition at 40 ppm: read-out: Percent Fungus Growth Inhibition, HO, 40 ppm, 72 hours
Phytophthora infestans [14] = format: cell-based; details: PI, 48 hours

O=c1c(Cl)nsnc1Oc1ccc([N+](=O)[O-])cc1Cl [Compound 53, 3-chloro-5-(2-chloro-4-nitrophenoxy)-4H--1,2,6-thiadiazin-4-one]
98%: pest or weed control at 150 ppm (Phytophthora infestans [3])
61%: inhibition at 10 ppm (Cladosporium cucumerinum [13])
67%: inhibition at 40 ppm (Pyricularia oryzae [8]) | inhibition at 20 ppm (Alternaria solani [11])
0%: pest or weed control at 150 ppm (Erysiphe polygoni [7]) | pest or weed control at 150 ppm (Pyricularia oryzae [9]) | pest or weed control at 150 ppm (Uromyces phaseoli [10])
53%: inhibition at 5 ppm (Rhizoctonia solani) | inhibition at 10 ppm (Rhizoctonia solani)
82%: inhibition at 10 ppm (Pythium ultimum)
42%: inhibition at 5 ppm (Fusarium solani) | inhibition at 10 ppm (Alternaria solani [11])
3 (60-80): Spore Germination Rating (Botrytis cinerea; 1.0 ppm)
20%: inhibition at 5 ppm (Pythium ultimum)
65%: inhibition at 40 ppm (Cladosporium cucumerinum [13])
2 (40-60): Spore Germination Rating (Erysiphe polygoni [4]; 1.0 ppm) | Spore Germination Rating (Alternaria solani [5]; 1.0 ppm) | Spore Germination Rating (Pyricularia oryzae [12]; 1.0 ppm)
78%: inhibition at 20 ppm (Pyricularia oryzae [8])
68%: inhibition at 10 ppm (Fusarium solani)
75%: inhibition at 10 ppm (Pyricularia oryzae [8])
100%: inhibition at 20 ppm (Pythium ultimum) | inhibition at 40 ppm (Pythium ultimum) | pest or weed control at 150 ppm (Uromyces phaseoli [1]) | inhibition at 20 ppm (Sclerotinia fructicola) | inhibition at 40 ppm (Sclerotinia fructicola) | inhibition at 20 ppm (Fusarium solani) | inhibition at 40 ppm (Fusarium solani) | inhibition at 40 ppm (Alternaria solani [11]) | inhibition at 10 ppm (Helminthosporium oryzae) | inhibition at 20 ppm (Helminthosporium oryzae) | inhibition at 40 ppm (Helminthosporium oryzae)
1 (10-40): Spore Germination Rating (Erysiphe polygoni [4]; 2.5 ppm) | Spore Germination Rating (Uromyces phaseoli [6]; 1.0 ppm) | Spore Germination Rating (Phytophthora infestans [14]; 1.0 ppm)
69%: inhibition at 5 ppm (Pyricularia oryzae [8])
89%: inhibition at 10 ppm (Sclerotinia fructicola)
27%: inhibition at 5 ppm (Helminthosporium oryzae)
38%: inhibition at 5 ppm (Alternaria solani [11])
63%: inhibition at 5 ppm (Sclerotinia fructicola)
0 (0-10): Spore Germination Rating (Cladosporium cucumerinum [2]; 1.0 ppm) | Spore Germination Rating (Cladosporium cucumerinum [2]; 2.5 ppm) | Spore Germination Rating (Cladosporium cucumerinum [2]; 10 ppm) | Spore Germination Rating (Cladosporium cucumerinum [2]; 40 ppm) | Spore Germination Rating (Erysiphe polygoni [4]; 10 ppm) | Spore Germination Rating (Erysiphe polygoni [4]; 40 ppm) | Spore Germination Rating (Botrytis cinerea; 2.5 ppm) | Spore Germination Rating (Botrytis cinerea; 10 ppm) | Spore Germination Rating (Botrytis cinerea; 40 ppm) | Spore Germination Rating (Alternaria solani [5]; 2.5 ppm) | Spore Germination Rating (Alternaria solani [5]; 10 ppm) | Spore Germination Rating (Alternaria solani [5]; 40 ppm) | Spore Germination Rating (Uromyces phaseoli [6]; 2.5 ppm) | Spore Germination Rating (Uromyces phaseoli [6]; 10 ppm) | Spore Germination Rating (Uromyces phaseoli [6]; 40 ppm) | Spore Germination Rating (Pyricularia oryzae [12]; 2.5 ppm) | Spore Germination Rating (Pyricularia oryzae [12]; 10 ppm) | Spore Germination Rating (Pyricularia oryzae [12]; 40 ppm) | Spore Germination Rating (Phytophthora infestans [14]; 2.5 ppm) | Spore Germination Rating (Phytophthora infestans [14]; 10 ppm) | Spore Germination Rating (Phytophthora infestans [14]; 40 ppm)
45%: inhibition at 5 ppm (Cladosporium cucumerinum [13])
71%: inhibition at 20 ppm (Cladosporium cucumerinum [13])
76%: inhibition at 20 ppm (Rhizoctonia solani) | inhibition at 40 ppm (Rhizoctonia solani)

Cc1ccc(Cl)c(Oc2nsnc(Cl)c2=O)c1 [Compound 56, 3-chloro-5-[(2-chloro-5-methyl)phenoxy]-4H--1,2,6-thiadiazin-4-one]
78%: inhibition at 10 ppm (Sclerotinia fructicola) | inhibition at 10 ppm (Rhizoctonia solani)
4 (80-100): Spore Germination Rating (Cladosporium cucumerinum [2]; 1.0 ppm) | Spore Germination Rating (Erysiphe polygoni [4]; 1.0 ppm) | Spore Germination Rating (Botrytis cinerea; 1.0 ppm) | Spore Germination Rating (Alternaria solani [5]; 1.0 ppm) | Spore Germination Rating (Phytophthora infestans [14]; 1.0 ppm)
26%: inhibition at 5 ppm (Cladosporium cucumerinum [13])
38%: inhibition at 5 ppm (Pyricularia oryzae [8]) | inhibition at 10 ppm (Cladosporium cucumerinum [13])
67%: inhibition at 10 ppm (Pythium ultimum) | inhibition at 10 ppm (Pyricularia oryzae [8]) | inhibition at 5 ppm (Helminthosporium oryzae)
1 (10-40): Spore Germination Rating (Uromyces phaseoli [6]; 1.0 ppm)
2 (40-60): Spore Germination Rating (Erysiphe polygoni [4]; 2.5 ppm)
69%: inhibition at 5 ppm (Sclerotinia fructicola)
70%: inhibition at 5 ppm (Fusarium solani)
71%: inhibition at 10 ppm (Alternaria solani [11])
95%: pest or weed control at 150 ppm (Phytophthora infestans [3])
33%: inhibition at 5 ppm (Rhizoctonia solani)
81%: inhibition at 20 ppm (Alternaria solani [11])
52%: inhibition at 5 ppm (Alternaria solani [11])
100%: inhibition at 20 ppm (Pythium ultimum) | inhibition at 40 ppm (Pythium ultimum) | inhibition at 20 ppm (Sclerotinia fructicola) | inhibition at 40 ppm (Sclerotinia fructicola) | inhibition at 20 ppm (Pyricularia oryzae [8]) | inhibition at 40 ppm (Pyricularia oryzae [8]) | inhibition at 10 ppm (Fusarium solani) | inhibition at 20 ppm (Fusarium solani) | inhibition at 40 ppm (Fusarium solani) | pest or weed control at 150 ppm (Uromyces phaseoli [10]) | inhibition at 40 ppm (Alternaria solani [11]) | inhibition at 40 ppm (Cladosporium cucumerinum [13]) | inhibition at 20 ppm (Cladosporium cucumerinum [13]) | inhibition at 20 ppm (Rhizoctonia solani) | inhibition at 40 ppm (Rhizoctonia solani) | inhibition at 10 ppm (Helminthosporium oryzae) | inhibition at 20 ppm (Helminthosporium oryzae) | inhibition at 40 ppm (Helminthosporium oryzae)
3 (60-80): Spore Germination Rating (Alternaria solani [5]; 2.5 ppm)
0%: inhibition at 5 ppm (Pythium ultimum) | pest or weed control at 150 ppm (Uromyces phaseoli [1]) | pest or weed control at 150 ppm (Erysiphe polygoni [7]) | pest or weed control at 150 ppm (Pyricularia oryzae [9])
0 (0-10): Spore Germination Rating (Cladosporium cucumerinum [2]; 2.5 ppm) | Spore Germination Rating (Cladosporium cucumerinum [2]; 10 ppm) | Spore Germination Rating (Cladosporium cucumerinum [2]; 40 ppm) | Spore Germination Rating (Erysiphe polygoni [4]; 10 ppm) | Spore Germination Rating (Erysiphe polygoni [4]; 40 ppm) | Spore Germination Rating (Botrytis cinerea; 2.5 ppm) | Spore Germination Rating (Botrytis cinerea; 10 ppm) | Spore Germination Rating (Botrytis cinerea; 40 ppm) | Spore Germination Rating (Alternaria solani [5]; 10 ppm) | Spore Germination Rating (Alternaria solani [5]; 40 ppm) | Spore Germination Rating (Uromyces phaseoli [6]; 2.5 ppm) | Spore Germination Rating (Uromyces phaseoli [6]; 10 ppm) | Spore Germination Rating (Uromyces phaseoli [6]; 40 ppm) | Spore Germination Rating (Pyricularia oryzae [12]; 1.0 ppm) | Spore Germination Rating (Pyricularia oryzae [12]; 2.5 ppm) | Spore Germination Rating (Pyricularia oryzae [12]; 10 ppm) | Spore Germination Rating (Pyricularia oryzae [12]; 40 ppm) | Spore Germination Rating (Phytophthora infestans [14]; 2.5 ppm) | Spore Germination Rating (Phytophthora infestans [14]; 10 ppm) | Spore Germination Rating (Phytophthora infestans [14]; 40 ppm)
